Key:
large crabgrass = experiment: Test B pre-/postemergence herbicide test; type: in vivo, Digitaria sanguinalis; settings: for Plant response rating, Crabgrass, Large: preemergence; for Crabgrass, Large plant response rating: postemergence, visual rating, scale 0 (no effect) to 100 (complete control)
In short: (§1)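 Greenhouse pot assay with simultaneous preemergence (treated seed) and postemergence (2–18 cm seedlings) applications of surfactant-containing, non-phytotoxic solvent formulations. Response scored visually 13–15 days later on a 0–100 scale, 100 meaning complete control.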

lambsquarters = experiment: Test B pre-/postemergence herbicide test; type: in vivo, Chenopodium album; settings: for Plant response rating, Lambsquarters: preemergence; for Lambsquarters plant response rating: postemergence, visual rating, scale 0 (no effect) to 100 (complete control)
In short: as §1

[1] = tested on: smallflower umbrella sedge; experiment: Test C flooded paddy test; type: in vivo, Cyperus difformis
pigweed = experiment: Test B pre-/postemergence herbicide test; type: in vivo, Amaranthus retroflexus; settings: for Plant response rating, Pigweed: preemergence; for Pigweed plant response rating: postemergence, visual rating, scale 0 (no effect) to 100 (complete control)
In short: as §1

velvetleaf = experiment: Test B pre-/postemergence herbicide test; type: in vivo, Abutilon theophrasti; settings: for Plant response rating, Velvetleaf: preemergence; for Velvetleaf plant response rating: postemergence, visual rating, scale 0 (no effect) to 100 (complete control)
In short: as §1

blackgrass = experiment: Test B postemergence herbicide test; type: in vivo, Alopecurus myosuroides; settings: postemergence, visual rating, scale 0 (no effect) to 100 (complete control)
In short: (§2)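 Paddy species grown to the 2-leaf stage under flooding; blackgrass sprayed postemergence at 2–18 cm (1- to 4-leaf stage). Plants kept in a greenhouse for 13 to 15 days, then visually rated against controls on 0 (no effect) to 100 (complete control).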

barnyardgrass [2] = experiment: Test B pre-/postemergence herbicide test; type: in vivo, Echinochloa crus-galli; settings: for Plant response rating, Barnyardgrass: preemergence; for Barnyardgrass plant response rating: postemergence, visual rating, scale 0 (no effect) to 100 (complete control)
In short: (§3)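 Test chemicals in a non-phytotoxic solvent mixture with surfactant were applied preemergence to seeded species and postemergence to plants 2-18 cm tall (1- to 4-leaf stage); rice and barnyardgrass were also tested in a flooded paddy at the 2-leaf stage. Visual rating versus controls after 13-15 days in greenhouse, scale 0 (no effect) to 100 (complete control).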

ducksalad [3] = experiment: Test C flooded paddy test; type: in vivo, Heteranthera limosa
[4] = tested on: small flower umbrella sedge; experiment: Test B flooded paddy test; type: in vivo, Cyperus difformis; settings: 1000 g ai/ha, visual rating, scale 0 to 100 (0 no effect, 100 complete control), 13 to 15 days
In short: as §2

morningglory = experiment: Test B pre-/postemergence herbicide test; type: in vivo, Ipomoea coccinea; settings: for Plant response rating, Morningglory: preemergence; for Morningglory plant response rating: postemergence, visual rating, scale 0 (no effect) to 100 (complete control)
In short: as §3

wild oat = experiment: Test B postemergence herbicide test; type: in vivo, Avena fatua; settings: postemergence, visual rating, scale 0 (no effect) to 100 (complete control)
In short: (§4)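 Greenhouse test; postemergence application to plants at 1–4 leaves (2–18 cm); paddy species at 2 leaves; evaluated visually vs controls at 13–15 days; scale 0–100 (100 = complete control).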

Surinam grass = experiment: Test B pre-/postemergence herbicide test; type: in vivo, Urochloa decumbens; settings: for Plant response rating, Surinam Grass: preemergence; for Surinam Grass plant response rating: postemergence, visual rating, scale 0 (no effect) to 100 (complete control)
In short: as §1

ducksalad [5] = experiment: Test B flooded paddy test; type: in vivo, Heteranthera limosa; settings: 1000 g ai/ha, visual rating, scale 0 to 100 (0 no effect, 100 complete control), 13 to 15 days
In short: as §2

barnyardgrass [6] = experiment: Test C flooded paddy test; type: in vivo, Echinochloa crus-galli
In short: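 Plants were grown to the 1- to 4-leaf stage (2–18 cm) and then treated postemergence, or grown to the 2-leaf stage for the flooded paddy test. They were held in a greenhouse for 12 to 14 days and then scored by eye against controls, where 0 is no effect and 100 is complete control.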

wheat = experiment: Test B postemergence herbicide test; type: in vivo, Triticum aestivum; set-up: key to Wheat plant response rating: 0 = no effect, 100 = complete control; settings: postemergence, 500 g ai/ha; visual rating, scale 0 (no effect) to 100 (complete control)
In short: as §4

rice [7] = experiment: Test B pre-/postemergence herbicide test; type: in vivo, Oryza sativa; settings: preemergence
In short: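 Species tested were Echinochloa crus-galli, Ipomoea coccinea, Xanthium strumarium and Oryza sativa, treated both before emergence and at the 1- to 4-leaf stage; rice and barnyardgrass were also tested under flooding at 2 leaves. Greenhouse incubation lasted 13–15 days before visual 0–100 scoring.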

cocklebur = experiment: Test B pre-/postemergence herbicide test; type: in vivo, Xanthium strumarium; settings: for Plant response rating, Cocklebur: preemergence; for Cocklebur plant response rating: postemergence, visual rating, scale 0 (no effect) to 100 (complete control)
In short: as §3

corn = experiment: Test B pre-/postemergence herbicide test; type: in vivo, Zea mays; settings: for Plant response rating, Corn: preemergence; for Corn plant response rating: postemergence, visual rating, scale 0 (no effect) to 100 (complete control)
In short: as §1

giant foxtail = experiment: Test B pre-/postemergence herbicide test; type: in vivo, Setaria faberi; settings: for Plant response rating, Foxtail, Giant: preemergence; for Foxtail, Giant plant response rating: postemergence, visual rating, scale 0 (no effect) to 100 (complete control)
In short: as §1

rice [8] = experiment: Test C flooded paddy test; type: in vivo, Oryza sativa
In short: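 Postemergence sprays applied to plants 2 to 18 cm tall (1- to 4-leaf stage); paddy species grown to 2-leaf stage under flooding. After 12 to 14 days in greenhouse, visual rating versus untreated controls on 0–100 scale (0 no effect, 100 complete control).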

rice [9] = experiment: Test B flooded paddy test; type: in vivo, Oryza sativa; settings: 1000 g ai/ha, visual rating, scale 0 to 100 (0 no effect, 100 complete control), 13 to 15 days
In short: as §4

barnyardgrass [10] = experiment: Test B flooded paddy test; type: in vivo, Echinochloa crus-galli; settings: 1000 g ai/ha, visual rating, scale 0 to 100 (0 no effect, 100 complete control), 13 to 15 days
In short: as §2

[11] = 500 g ai/ha, visual rating 0-100, 0 no effect, 100 complete control
[12] = 125 g ai/ha, 0 to 100 scale, 0 is no effect, 100 is complete control
[13] = 62 g ai/ha, scale 0 to 100 (0 no effect, 100 complete control)
[14] = 125 g ai/ha, scale 0 to 100 (0 no effect, 100 complete control)
[15] = 250 g ai/ha, scale of 0 to 100, 0 is no effect, 100 is complete control
[16] = 500 g ai/ha, visual rating after 12 to 14 days, scale 0 to 100 (0 no effect, 100 complete control)

SMILES: CCn1nc(C(C)(C)C)cc1C(=O)Nc1cccc(C(=O)N(C)CC#N)n1 [Compound 158]
- Plant response rating, Crabgrass, Large (large crabgrass; [11]): 100
- Crabgrass, Large plant response rating (large crabgrass; 125 g ai/ha): 30
- Crabgrass, Large plant response rating (large crabgrass; 500 g ai/ha): 30
- Plant response rating, Crabgrass, Large (large crabgrass; [12]): 80
- Plant response rating, Lambsquarters (lambsquarters; [11]): 100
- Lambsquarters plant response rating (lambsquarters; 125 g ai/ha): 80
- Lambsquarters plant response rating (lambsquarters; 500 g ai/ha): 80
- Plant response rating, Lambsquarters (lambsquarters; [12]): 70
- Sedge, Umbrella plant response rating [1, 13]: 15
- Sedge, Umbrella plant response rating [1, 14]: 45
- Sedge, Umbrella plant response rating [1, 15]: 70
- Plant response rating, Sedge, Umbrella [1, 16]: 80
- Plant response rating, Pigweed (pigweed; [11]): 100
- Pigweed plant response rating (pigweed; 125 g ai/ha): 50
- Pigweed plant response rating (pigweed; 500 g ai/ha): 70
- Plant response rating, Pigweed (pigweed; [12]): 100
- Plant response rating, Velvetleaf (velvetleaf; [11]): 80
- Velvetleaf plant response rating (velvetleaf; 125 g ai/ha): 50
- Velvetleaf plant response rating (velvetleaf; 500 g ai/ha): 50
- Plant response rating, Velvetleaf (velvetleaf; [12]): 50
- Blackgrass plant response rating (blackgrass; 125 g ai/ha): 20
- Blackgrass plant response rating (blackgrass; 500 g ai/ha): 30
- Plant response rating, Barnyardgrass (barnyardgrass [2]; [11]): 100
- Barnyardgrass plant response rating (barnyardgrass [2]; 125 g ai/ha): 0
- Barnyardgrass plant response rating (barnyardgrass [2]; 500 g ai/ha): 0
- Plant response rating, Barnyardgrass (barnyardgrass [2]; [12]): 70
- Ducksalad plant response rating (ducksalad [3]; [13]): 0
- Ducksalad plant response rating (ducksalad [3]; [14]): 0
- Ducksalad plant response rating (ducksalad [3]; [15]): 20
- Plant response rating, Ducksalad (ducksalad [3]; [16]): 50
- Sedge, Umbrella plant response rating [4]: 80
- Plant response rating, Morningglory (morningglory; [11]): 50
- Morningglory plant response rating (morningglory; 125 g ai/ha): 0
- Morningglory plant response rating (morningglory; 500 g ai/ha): 50
- Plant response rating, Morningglory (morningglory; [12]): 50
- Oat, Wild plant response rating (wild oat; 125 g ai/ha): 30
- Oat, Wild plant response rating (wild oat; 500 g ai/ha): 40
- Plant response rating, Surinam Grass (Surinam grass; [11]): 90
- Surinam Grass plant response rating (Surinam grass; 125 g ai/ha): 0
- Surinam Grass plant response rating (Surinam grass; 500 g ai/ha): 0
- Plant response rating, Surinam Grass (Surinam grass; [12]): 30
- Ducksalad plant response rating (ducksalad [5]): 90
- Barnyardgrass plant response rating (barnyardgrass [6]; [13]): 0
- Barnyardgrass plant response rating (barnyardgrass [6]; 125 g ai/ha, scale of 0 to 100, 0 is no effect, 100 is complete control): 0
- Barnyardgrass plant response rating (barnyardgrass [6]; [15]): 15
- Plant response rating, Barnyardgrass (barnyardgrass [6]; [16]): 35
- Wheat plant response rating (wheat): 10
- Plant response rating, Rice (rice [7]; [11]): 90
- Plant response rating, Rice (rice [7]; [12]): 80
- Plant response rating, Cocklebur (cocklebur; [11]): 40
- Cocklebur plant response rating (cocklebur; 125 g ai/ha): 20
- Cocklebur plant response rating (cocklebur; 500 g ai/ha): 70
- Plant response rating, Cocklebur (cocklebur; [12]): 40
- Plant response rating, Corn (corn; [11]): 60
- Corn plant response rating (corn; 125 g ai/ha): 0
- Corn plant response rating (corn; 500 g ai/ha): 10
- Plant response rating, Corn (corn; [12]): 0
- Plant response rating, Foxtail, Giant (giant foxtail; [11]): 100
- Foxtail, Giant plant response rating (giant foxtail; 125 g ai/ha): 0
- Foxtail, Giant plant response rating (giant foxtail; 500 g ai/ha): 30
- Plant response rating, Foxtail, Giant (giant foxtail; [12]): 50
- Rice plant response rating (rice [8]; [13]): 0
- Rice plant response rating (rice [8]; [14]): 0
- Rice plant response rating (rice [8]; [15]): 35
- Plant response rating, Rice (rice [8]; [16]): 60
- Rice plant response rating (rice [9]): 60
- Barnyardgrass plant response rating (barnyardgrass [10]): 70
